Test results from ChEMBL document CHEMBL5543109, “Novel β-Hairpin Antimicrobial Peptide Containing the β-Turn Sequence of -NG- and the Tryptophan Zippers Facilitate Self-Assembly into Nanofibers, Exhibiting Excellent Antimicrobial Performance” (J Med Chem, 2024).
≈ marks a conversion by molar mass, not a printed value. Calls of active or inactive are those of the source. The calls are words filed in the database; no cut-off is given here.

Legend:
Escherichia coli [1] = test: Antibacterial activity against Escherichia coli infected in BALB/c mouse systemic infection model assessed as reduction in kidney bacterial load at 5 to 10 mg/kg, ip measured after 24 hrs; assay type: functional, organism-based; conditions: dose 5-10 mg/kg
Staphylococcus aureus [2] = test: Synergistic antibacterial activity against Staphylococcus aureus 794 assessed as fractional inhibitory concentration index incubated for 18 hrs in presence of rifampin by checkerboard assay; assay type: functional
Staphylococcus aureus [3] = test: Antibacterial activity against Staphylococcus aureus infected in BALB/c mouse systemic infection model assessed as reduction in kidney bacterial load at 5 to 10 mg/kg, ip measured after 8 hrs; assay type: functional, organism-based; conditions: dose 5-10 mg/kg
Staphylococcus aureus [4] = test: Antibacterial activity against Staphylococcus aureus ATCC 25923 incubated for 18 hrs by broth microdilution method; assay type: functional
Cell membrane [5] = test: Induction of cell membrane disruption in Escherichia coli assessed as PI uptake incubated for 2 hrs by PI staining based confocal laser scanning microscopy; assay type: cell membranes
[6] = Toxicity in BALB/c mouse infected with Staphylococcus aureus 794 assessed as increase in hair follicles at 1 mg/ml, ip pre-infected with bacteria for 24 hrs followed by compound addition and measured after 13 days by H and E staining based histopathological analysis; assay type: organism-based; conditions: in vivo, 312 h, time 13 day
Staphylococcus aureus [7] = test: Additive antibacterial activity against Staphylococcus aureus 794 assessed as fractional inhibitory concentration index incubated for 18 hrs in presence of ciprofloxacin by checkerboard assay; assay type: functional
Staphylococcus aureus [8] = test: Antibacterial activity against kanamycin resistant Staphylococcus aureus incubated for 18 hrs by broth microdilution method; assay type: functional
[9] = Stability in mouse serum assessed as half-life measured upto 48 hrs by RP-HPLC analysis; assay type: ADME, cell-free
Erythrocyte = test: Hemolytic activity in mouse erythrocytes assessed as concentration required to cause 10% hemolysis incubated for 1 hr; assay type: toxicity, cell-based
Cell membrane [10] = test: Induction of cell membrane disruption in Escherichia coli assessed as PI uptake at 4 times MIC incubated for 2 hrs by PI staining based flow cytometry analysis (reference value: 11.9%); assay type: cell membranes
[11] = Toxicity in BALB/c mouse infected with Staphylococcus aureus 794 assessed as hyperkeratosis at 1 mg/ml, ip pre-infected with bacteria for 24 hrs followed by compound addition and measured after 13 days by H and E staining based histopathological analysis; assay type: organism-based; conditions: in vivo, 312 h, time 13 day
Staphylococcus aureus [12] = test: Additive antibacterial activity against Staphylococcus aureus 125 assessed as fractional inhibitory concentration index incubated for 18 hrs in presence of streptomycin by checkerboard assay; assay type: functional
Pseudomonas aeruginosa [13] = test: Synergistic antibacterial activity against Pseudomonas aeruginosa assessed as fractional inhibitory concentration index incubated for 18 hrs in presence of polymyxin B by checkerboard assay; assay type: functional
Staphylococcus aureus [14] = test: Antibacterial activity against Staphylococcus aureus 794 infected in BALB/c mouse skin wound infection model assessed as reduction in TNFalpha level at 1 mg/ml, ip pre-infected with bacteria for 24 hrs followed by compound addition and measured after 13 days post infection in presence of vancomycin; assay type: functional, organism-based; conditions: time 12.0 day
Klebsiella pneumoniae [15] = test: Synergistic antibacterial activity against Klebsiella pneumoniae assessed as fractional inhibitory concentration index incubated for 18 hrs in presence of rifampin by checkerboard assay; assay type: functional
Escherichia coli [16] = test: Antibacterial activity against Escherichia coli incubated for 18 hrs by broth microdilution method; assay type: functional
Pseudomonas aeruginosa [17] = test: Antibacterial activity against Pseudomonas aeruginosa incubated for 18 hrs in presence of ZnCl2 by broth microdilution method; assay type: functional, organism-based
Cell membrane [18] = test: Induction of outer membrane permeabilization in Escherichia coli at 1/2 MIC measured immediately by NPN-dye based assay; assay type: cell membranes
Escherichia coli [19] = test: Antibacterial activity against Escherichia coli infected in BALB/c mouse systemic infection model assessed as reduction in spleen bacterial load at 5 mg/kg, ip measured after 24 hrs; assay type: functional, organism-based
Cell membrane [20] = test: Induction of cytoplasmic membrane depolarization in Staphylococcus aureus at 2 to 4 times MIC by DiSC3-5 dye based fluorescence method; assay type: cell membranes
[21] = test system: Staphylococcus epidermidis; test: Bactericidal activity against Staphylococcus epidermidis ATCC 12228 incubated for 18 hrs by broth microdilution method; assay type: functional
[22] = Acute toxicity in mouse assessed as mortality rate at 200 mg/kg, ip by karber method; assay type: organism-based; conditions: in vivo, read-out: Activity
Pseudomonas aeruginosa [23] = test: Drug resistance against Pseudomonas aeruginosa assessed as fold increase in MIC after 40 consecutive days of passages by sequential passaging method; assay type: functional; conditions: time 18 hrs
Staphylococcus aureus [24] = test: Antibacterial activity against Staphylococcus aureus 794 infected in BALB/c mouse skin wound infection model assessed as wound healing at 1 mg/ml, ip pre-infected with bacteria for 24 hrs followed by compound addition and measured after 13 days post infection; assay type: functional, organism-based; conditions: time 12.0 day
Staphylococcus aureus [25] = test: Synergistic antibacterial activity against kanamycin resistant Staphylococcus aureus assessed as fractional inhibitory concentration index incubated for 18 hrs in presence of rifampin by checkerboard assay; assay type: functional
[26] = Self-assembly property of compound in PBS assessed as beta-sheet formation by measuring particle size at 50 uM by […]; assay type: physicochemical; conditions: buffer
Pseudomonas aeruginosa [27] = test: Induction of morphological change in Pseudomonas aeruginosa assessed as pore formation at 2 times MIC incubated for 30 mins by SEM analysis; assay type: functional, organism-based
Staphylococcus aureus [28] = test: Additive antibacterial activity against methicillin resistant Staphylococcus aureus 113 assessed as fractional inhibitory concentration index incubated for 18 hrs in presence of cefotaxime by checkerboard assay; assay type: functional
Pseudomonas aeruginosa [29] = test: Antibacterial activity against Pseudomonas aeruginosa incubated for 18 hrs in presence of MgCl2 by broth microdilution method; assay type: functional, organism-based
Cell membrane [30] = test: Induction of cell membrane disruption in Staphylococcus aureus assessed as PI uptake at 2 times MIC incubated for 2 hrs by PI staining based flow cytometry analysis (reference value: 15.9%); assay type: cell membranes
Staphylococcus aureus [31] = test: Synergistic antibacterial activity against methicillin resistant Staphylococcus aureus assessed as fractional inhibitory concentration index incubated for 18 hrs in presence of kanamycin by checkerboard assay; assay type: functional
Escherichia coli [32] = test: Antibacterial activity against rifampicin resistant Escherichia coli incubated for 18 hrs by broth microdilution method; assay type: functional
Pseudomonas aeruginosa [33] = test: Antibacterial activity against Pseudomonas aeruginosa incubated for 18 hrs in presence of NH4Cl by broth microdilution method; assay type: functional, organism-based
Cell membrane [34] = test: Induction of outer membrane permeabilization in Escherichia coli within 1 min by NPN-dye based assay; assay type: cell membranes
Klebsiella pneumoniae [35] = test: […] antibacterial activity against Klebsiella pneumoniae assessed as fractional inhibitory concentration index incubated for 18 hrs in presence of polymyxin B by checkerboard assay; assay type: functional
Escherichia coli [36] = test: Antibacterial activity against kanamycin resistant Escherichia coli incubated for 18 hrs by broth microdilution method; assay type: functional
Cell membrane [37] = test: Induction of inner membrane permeabilization in Escherichia coli ML-35 at 1 to 4 times MIC measured every 5 mins for 120 mins by ONPG dye based assay; assay type: cell membranes
Pseudomonas aeruginosa [38] = test: Induction of morphological change in Pseudomonas aeruginosa assessed as bacterial deformation at 2 times MIC incubated for 30 mins by SEM analysis; assay type: functional, organism-based
Staphylococcus aureus [39] = test: Antibacterial activity against methicillin resistant Staphylococcus aureus incubated for 18 hrs by broth microdilution method; assay type: functional
Staphylococcus aureus [40] = test: Antibacterial activity against Staphylococcus aureus incubated for 18 hrs in presence of NH4Cl by broth microdilution method; assay type: functional, organism-based
Staphylococcus aureus [41] = test: Antibacterial activity against Staphylococcus aureus 794 infected in BALB/c mouse skin wound infection model assessed as reduction in wound area at 1 mg/ml, ip pre-infected with bacteria for 24 hrs followed by compound addition and measured on day 5 in presence of vancomycin; assay type: functional, organism-based; conditions: time 5.0 day
[42] = Retention time of the compound; assay type: physicochemical

NCCCC[C@@H](NC(=O)[C@H](N)Cc1c[nH]c2ccccc12)C(=O)N[C@H](Cc1c[nH]c2ccccc12)C(=O)N[C@H](CCCCN)C(=O)N[C@H](Cc1c[nH]c2ccccc12)C(=O)N[C@@H](CC(N)=O)C(=O)NCC(=O)N[C@H](Cc1c[nH]c2ccccc12)C(=O)N[C@H](CCCCN)C(=O)N[C@H](Cc1c[nH]c2ccccc12)C(=O)N[C@H](CCCCN)C(=O)N[C@H](Cc1c[nH]c2ccccc12)C(N)=O
Activity (Escherichia coli [1]): Active | fractional inhibitory concentration index (FICI) (Staphylococcus aureus [2]): 0.188 | Activity (Staphylococcus aureus [3]): Active | MIC (Staphylococcus aureus [4]): 4 µM (≈ 7.27 µg/mL) | Activity (Cell membrane [5]): Dose-Dependent Effect | Activity [6]: Toxic | fractional inhibitory concentration index (FICI) (Staphylococcus aureus [7]): 0.563 | MIC (Staphylococcus aureus [8]): 4 µM (≈ 7.27 µg/mL) | half-life [9]: > 48 h | MHC (Erythrocyte): > 512 µM | Activity (Cell membrane [10]): 92.8% | Activity [11]: Non-Toxic | fractional inhibitory concentration index (FICI) (Staphylococcus aureus [12]): 1 | fractional inhibitory concentration index (FICI) (Pseudomonas aeruginosa [13]): 0.188 | Activity (Staphylococcus aureus [14]): Active | fractional inhibitory concentration index (FICI) (Klebsiella pneumoniae [15]): 0.5 | MIC (Escherichia coli [16]): 8 µM (≈ 14.5 µg/mL) | Activity (Pseudomonas aeruginosa [17]): Active | Activity (Cell membrane [18]): 40% | Activity (Escherichia coli [19]): Active | Activity (Cell membrane [20]): Active | MBC [21]: 4 µM (≈ 7.27 µg/mL) | mortality [22]: 20% | fold change (FC) (Pseudomonas aeruginosa [23]): 4 | Activity (Staphylococcus aureus [24]): Active | fractional inhibitory concentration index (FICI) (Staphylococcus aureus [25]): 0.313 | Activity [26]: 874.9 nm | Activity (Pseudomonas aeruginosa [27]): Active | fractional inhibitory concentration index (FICI) (Staphylococcus aureus [28]): 0.563 | Activity (Pseudomonas aeruginosa [29]): Active | Activity (Cell membrane [30]): 96.6% | fractional inhibitory concentration index (FICI) (Staphylococcus aureus [31]): 0.313 | MIC (Escherichia coli [32]): 8 µM (≈ 14.5 µg/mL) | Activity (Pseudomonas aeruginosa [33]): Active | Activity (Cell membrane [34]): Dose-Dependent Effect | fractional inhibitory concentration index (FICI) (Klebsiella pneumoniae [35]): 0.375 | MIC (Escherichia coli [36]): 16 µM (≈ 29.1 µg/mL) | Activity (Cell membrane [37]): Active | Activity (Pseudomonas aeruginosa [38]): Active | MIC (Staphylococcus aureus [39]): 8 µM (≈ 14.5 µg/mL) | Activity (Staphylococcus aureus [40]): Active | Activity (Staphylococcus aureus [41]): Active | Retention_time [42]: 14.321 min
